Results taken from patent US20230181684A1, “NOVEL ANTIBIOTIC COMPOSITIONS AND METHODS OF MAKING OR USING THE SAME” (priority 2020, published 2023).
In brackets after ≈: the same amount, converted by molar mass. Numbered stars: 1 amine (or outer) side, 2 acyl side, 3 side chain; on linkers, the order of the positions; unused ones are H or OH. Bridge positions count the residues as written; N and C are the ends. Square brackets hold non-standard residues; d marks the D form. Peptide text beside a SMILES is read from it. * marks the point of attachment. Hpg(αMan(1-2)αMan) = N[C@H](C(=O)O)c1ccc(O[C@H]2O[C@H](CO)[C@@H](O)[C@H](O)[C@@H]2O[C@H]2O[C@H](CO)[C@@H](O)[C@H](O)[C@@H]2O)cc1; Octa(2Z,4E)dienoyl(7-Me) = CC(C)C/C=C/C=C\C(=O)*; X1 = NC(=O)[C@@H](O[*:3])[C@H](N[*:1])C(=O)[*:2]; X3 = O=C([C@@H](N[*:1])c1cc(O)cc(O)c1)[*:2]; Hpg(3-Cl) = N[C@H](C(=O)O)c1ccc(O)c(Cl)c1; d(aThr) = C[C@@H](O)[C@@H](N)C(=O)O; dHpg = N[C@@H](C(=O)O)c1ccc(O)cc1; Hpg = N[C@H](C(=O)O)c1ccc(O)cc1; aThr = C[C@H](O)[C@H](N)C(=O)O; dOrn = NCCC[C@@H](N)C(=O)O; X2 = CC(C)CCCCCCC(=O)*

How the values were obtained:
E. coli ATCC 25922 = test system: E. coli ATCC 25922
Method: (§1) Assessment of antimicrobial activity of chersinamycin: Chersinamycin was examined for its ability to inhibit bacterial growth by broth microdilution assays against Gram-positive strains B. subtilis ATCC 6051, S. aureus ATCC 25923, and E. faecalis ATCC 29212 and Gram-negative strain E. coli ATCC 25922.
(§2) Minimal inhibitory assays. Antibacterial activity of chersinamycin and positive controls (vancomycin, ampicillin, and ramoplanin A2) were determined by the broth microdilution assay method. Briefly, bacterial strains were grown in cation-adjusted Mueller-Hinton broth. A microtiter plate was prepared by coating wells in 0.2% BSA, and antimicrobial peptides were added with 2-fold dilution steps ranging from 64-0.125 μg mL^−1. Bacteria was added to a final concentration of 10^5 colony forming units and final volume of 100 μL. Plates were incubated at 37° C. for 24 hours, and the MIC was read as the lowest peptide concentration for which no bacterial growth was visualized. Reported values are the average of two replicates.

Gram-positive strains = test: Broth microdilution, Gram-positive strains overall; type: cell-based; conditions: Gram-positive strains B. subtilis ATCC 6051, S. aureus ATCC 25923, E. faecalis ATCC 29212
Method: as §1, §2

[1] = 1% triethylamine in water, room temperature
Excerpt: Macrolactone selective hydrolysis. […] The solution was allowed to sit at room temperature for one hour, and then analyzed by MALDI-TOF. After determining that the reaction had gone to completion by complete consumption of the starting material, the reaction mixture was dried and reconstituted in a water/acetonitrile mixture for further MS/MS analyses.

B. subtilis ATCC 6051 = conditions: ATCC 6051, 24 h
Method: as §1, §2

E. faecalis ATCC 29212 = conditions: ATCC 29212, 24 h
Method: as §1, §2

S. aureus ATCC 25923 = conditions: ATCC 25923, 24 h
Method: as §1, §2

[2] = test system: vancomycin-susceptible and vancomycin-resistant C. difficile strains; conditions: cited from earlier work
[3] = test system: Gram-positive bacterial infections; conditions: cited from earlier work
[4] = cited from earlier work
[5] = delivered intravenously; cited from earlier work
[6] = administered by intraperitoneal injection; cited from earlier work
[7] = Boger alanine scan comparators; cited from earlier work

## CC(C)CCCCCCC(=O)N[C@@H](CC(N)=O)C(=O)N[C@@H]1C(=O)N[C@H](c2ccc(O)cc2)C(=O)N[C@H](CCCN)C(=O)N[C@H]([C@@H](C)O)C(=O)N[C@@H](c2ccc(O)cc2)C(=O)N[C@H](c2ccc(O)cc2)C(=O)N[C@@H]([C@H](C)O)C(=O)N[C@@H](Cc2ccccc2)C(=O)N[C@H](CCCN)C(=O)N[C@@H](c2ccc(O[C@H]3O[C@H](CO)[C@@H](O)[C@H](O)[C@@H]3O[C@H]3O[C@H](CO)[C@@H](O)[C@H](O)[C@@H]3O)cc2)C(=O)N[C@H]([C@@H](C)O)C(=O)N[C@@H](c2cc(O)cc(O)c2)C(=O)NCC(=O)N[C@@H](C(C)C)C(=O)N[C@H](C)C(=O)N[C@@H](c2ccc(O)c(Cl)c2)C(=O)O[C@@H]1C(N)=O [Chersinamycin, chersinamycin] (X2-N[X1][dHpg][dOrn][d(aThr)][Hpg][dHpg][aThr]F[dOrn][Hpg(αMan(1-2)αMan)][d(aThr)][X3]GV[dA][Hpg(3-Cl)]; ester 2-C; N-terminus assumed)
E. coli ATCC 25922; Gram-negative strain E. coli ATCC 25922
  ability to inhibit bacterial growth, in words: ineffective
Gram-positive strains
  ability to inhibit bacterial growth, in words: potent antimicrobial activity
[1]
  stability of peptide macrocycle to base: highly base labile

## CC(C)C/C=C/C=C\C(=O)N[C@@H](CC(N)=O)C(=O)N[C@@H]1C(=O)N[C@H](c2ccc(O)cc2)C(=O)N[C@H](CCCN)C(=O)N[C@H]([C@@H](C)O)C(=O)N[C@@H](c2ccc(O)cc2)C(=O)N[C@H](c2ccc(O)cc2)C(=O)N[C@@H]([C@H](C)O)C(=O)N[C@@H](Cc2ccccc2)C(=O)N[C@H](CCCN)C(=O)N[C@@H](c2ccc(O[C@H]3O[C@H](CO)[C@@H](O)[C@H](O)[C@@H]3O[C@H]3O[C@H](CO)[C@@H](O)[C@H](O)[C@@H]3O)cc2)C(=O)N[C@H]([C@@H](C)O)C(=O)N[C@@H](c2ccc(O)cc2)C(=O)NCC(=O)N[C@@H](CC(C)C)C(=O)N[C@H](C)C(=O)N[C@@H](c2ccc(O)c(Cl)c2)C(=O)O[C@@H]1C(N)=O [Ramoplanin, ramoplanin A2] ({Octa(2Z,4E)dienoyl(7-Me)}-N[X1][dHpg][dOrn][d(aThr)][Hpg][dHpg][aThr]F[dOrn][Hpg(αMan(1-2)αMan)][d(aThr)][Hpg]GL[dA][Hpg(3-Cl)]; ester 2-C)
B. subtilis ATCC 6051
  MIC: <0.125 µg/mL
E. coli ATCC 25922; ATCC 25922, 24 h
  MIC: >64 µg/mL
E. faecalis ATCC 29212
  MIC: 0.5 µg/mL (≈ 0.196 µM)
S. aureus ATCC 25923
  MIC: 0.5 µg/mL (≈ 0.196 µM)
[2]
  MICs in vitro against C. difficile: 0.25 to 0.50 µg/mL
[3]
  MICs in vitro: 0.125 to 2 µg/mL
[4]; in vivo, po
  oral absorption: not orally absorbed
[4]; oral delivery
  colonic concentrations: > 300 µg/mL
[5]
  hemolysis: mild to moderately hemolytic
[6]
  stability of macrolactone: susceptible to hydrolysis

## [Dap2]-ramoplanin A2 aglycon [[Dap2]-ramoplanin aglycon]
[7]
  MIC: 0.07 µg/mL

## ramoplanin A2 aglycon
[7]
  MIC: 0.11 µg/mL
